Source: US8440724B2, “Inhibiting neurotransmitter reuptake” (Mayo Foundation for Medical Education and Research, priority 2008, dated 2013)
Entries after “also recorded” stand apart in the source; their conditions may differ. Where two headings read alike, the source gives them in different places.

Columns and labels:
[1] = target: T1, human norepinephrine transporter (hNET) (Homo sapiens, UniProt P23975); test: Radioligand binding to cloned hNET, [3H]nisoxetine, HEK-293 cell membranes; conditions: for Kd: Geometric Mean ± SEM, HCl salts, read-out: Equilibrium Dissociation Constant (KD) for Transporter Binding, hNET (N)
T1 construct: expressed in transfected cells; host or cells: HEK-293, stably transfected
Protocol: (§1) HEK-293 cells expressing the recombinant hSERT or hDAT were incubated with Dulbecco's modified Eagles medium (MEM) supplemented with 0.1 mM nonessential amino acid solution for MEM, 5% v/v fetal bovine serum and 1 U/mL penicillin/streptomycin solution. Cells expressing the hNET transporter were incubated with Dulbecco's modified Eagles medium supplemented with 10% v/v fetal bovine serum and 100 U/mL penicillin/streptomycin solution and 2 mM L-glutamine. The cells were grown until 70-80% confluent on 175 cm^2 flasks in a humidified 10% CO2/90% air environment at 37° C., with the selecting antibiotic Geneticin sulfate at 250 μg/mL. The cells were incubated in 10% CO2, 90% air at 37° C. and 100% humidity.
(§2) Cell membranes containing hSERT, hNET, or hDAT were prepared from the cell lines to assay ligand binding for each of the transporters. […] The washed cells were incubated for 5 minutes at 37° C. in 10 mL solution 1 containing 100 mM ethylene glycol-bis N,N,N′,N′-tetraacetic acid (EGTA). The cells were then scraped from the flask surface with a rubber spatula, placed into a centrifuge tube, and collected by centrifugation at 1000×g for 5 minutes at 4° C. The resulting supernatant was discarded, and the cell pellet was resuspended in 0.5 to1.0 mL of the appropriate binding buffer (described below). The resuspended cell pellet was homogenized using a Polytron for 10 seconds at setting 6. The resulting homogenate was centrifuged at about 36,000×g for 10 minutes at 4° C. The supernatant was discarded, and the pellet was resuspended in the same volume of the appropriate binding buffer and centrifuged again. The supernatant was discarded, and the final pellet containing cell membranes was resuspended in the appropriate binding buffer and stored at −80° C. until use.
To assess binding to the cloned hNET, cells expressing hNET were homogenized in 50 mM Tris-HCl with 300 mM NaCl and 5 mM KCl (pH 7.4). The binding reaction consisted of 5 μg cell membrane protein, 0.5 nM [^3H]nisoxetine (nisoxetine HCl, [N-methyl-^3H], specific activity 82.0 Ci/mmol; Amersham, Arlington Hts., Ill.), and varying concentrations of either unlabeled nisoxetine or the test compound. A reaction to determine non-specific binding consisted of 5 μg cell membrane protein, 0.5 nM [^3H]nisoxetine, and 1 μM final concentration of unlabeled nisoxetine. The reactions were incubated at 22° C. for 60 minutes. Following incubation, the reactions were terminated by rapid filtration through separate GF/B filter strips pretreated with 0.2% polyethylenimine in a 48-well Brandel cell harvester. The cell membrane-containing filter strips were then rinsed five times with ice-cold 0.9% NaCl. After rinsing, individual filters were cut from the strip and placed in a scintillation vial containing 6.5 mL of Redi-Safe (Beckman-Coulter, Fullerton, Calif.).
(§3) The program was modified to calculate the Hill coefficient (nH). Data are presented as geometric mean±S.E.M. of at least three independent experiments. One-component models and two-component models were compared using the root mean square error of each fit and the F test.

[2] = system: hSERT, hNET, hDAT; test: Human transporter binding: rank order and range of potency over the three transporters; conditions: for Potency (rank-order of potency of binding; S = hSERT, N = hNET, D = hDAT): from KD values; for Potency Range (difference between most potent and least potent binding): ratio of KD over hSERT, hNET, hDAT
Description: as §3

[3] = target: T2, human dopamine transporter (hDAT) (Homo sapiens, UniProt Q01959); test: Radioligand binding to cloned hDAT, [3H]WIN35428, HEK-293 cell membranes; conditions: for Binding at hDAT compared to PRC200-SS: in words
T2 construct: expressed in transfected cells; host or cells: HEK-293, stably transfected
Protocol: as §1, §2
To assess binding to the cloned hDAT, cells expressing hDAT were homogenized in 50 mM Tris-HCl with 120 mM NaCl (pH 7.4). The binding reaction contained 15 μg cell membrane protein, 1 nM [^3H]WIN35428 (WIN35428, [N-methyl-^3H], specific activity 85.9 Ci/mmol; PerkinElmer, Boston, Mass.), and varying concentrations of either unlabeled WIN35428 or the test compound. A reaction to determine non-specific binding contained 15 μg cell membrane protein, 1 nM [^3H]WIN35428, and 10 μM final concentration of unlabeled WIN35428. The reactions were incubated at 22° C. for 1 hour. Following incubation, the reactions were terminated by rapid filtration through separate GF/B filter strips pretreated with 0.2% polyethylenimine in a 48-well Brandel cell harvester. The cell membrane-containing filter strips were then rinsed five times with ice-cold 0.9% NaCl. After rinsing, individual filters were cut from the strip and placed in a scintillation vial containing 6.5 mL of Redi-Safe (Beckman-Coulter, Fullerton, Calif.).
as §3

[4] = target: T3, human serotonin transporter (hSERT) (Homo sapiens, UniProt P31645); test: Radioligand binding to cloned hSERT, [3H]citalopram, HEK-293 cell membranes; conditions: for Kd: Geometric Mean ± SEM, HCl salts, read-out: Equilibrium Dissociation Constant (KD) for Transporter Binding, hSERT (S); for Binding at hSERT compared to PRC200-SS: in words
T3 construct: expressed in transfected cells; host or cells: HEK-293, stably transfected
Protocol: as §1, §2
Radioligand binding assays for the indicated transporters were performed as follows. To assess binding to the cloned hSERT, cells expressing hSERT were homogenized in 50 mM Tris-HCl with 120 mM NaCl and 5 mM KCl (pH 7.4). The binding reaction consisted of 10 μg cell membrane protein, […] [^3H]citalopram (citalopram, [N-methyl-^3H], specific activity 79.0 Ci/mmol; PerkinElmer, Boston, Mass.), and varying concentrations of either unlabeled citalopram or the test compound. A reaction to determine non-specific binding consisted of 10 μg cell membrane protein, 0.5 nM [^3H]citalopram, and 1 μM final concentration of unlabeled citalopram. The reactions were incubated at 22° C. for 60 minutes. Following incubation, the reactions were terminated by rapid filtration through separate GF/B filter strips pretreated with 0.2% polyethylenimine in a 48-well Brandel cell harvester. The cell membrane-containing filter strips were then rinsed five times with ice-cold 0.9% NaCl. After rinsing, individual filters were cut from the strip and placed in a scintillation vial containing 6.5 mL of Redi-Safe (Beckman-Coulter, Fullerton, Calif.).
as §3

[5] = Geometric Mean ± SEM, HCl salts, read-out: Equilibrium Dissociation Constant (KD) for Transporter Binding, hDAT (D)

T1 sequence (P23975 whole entry): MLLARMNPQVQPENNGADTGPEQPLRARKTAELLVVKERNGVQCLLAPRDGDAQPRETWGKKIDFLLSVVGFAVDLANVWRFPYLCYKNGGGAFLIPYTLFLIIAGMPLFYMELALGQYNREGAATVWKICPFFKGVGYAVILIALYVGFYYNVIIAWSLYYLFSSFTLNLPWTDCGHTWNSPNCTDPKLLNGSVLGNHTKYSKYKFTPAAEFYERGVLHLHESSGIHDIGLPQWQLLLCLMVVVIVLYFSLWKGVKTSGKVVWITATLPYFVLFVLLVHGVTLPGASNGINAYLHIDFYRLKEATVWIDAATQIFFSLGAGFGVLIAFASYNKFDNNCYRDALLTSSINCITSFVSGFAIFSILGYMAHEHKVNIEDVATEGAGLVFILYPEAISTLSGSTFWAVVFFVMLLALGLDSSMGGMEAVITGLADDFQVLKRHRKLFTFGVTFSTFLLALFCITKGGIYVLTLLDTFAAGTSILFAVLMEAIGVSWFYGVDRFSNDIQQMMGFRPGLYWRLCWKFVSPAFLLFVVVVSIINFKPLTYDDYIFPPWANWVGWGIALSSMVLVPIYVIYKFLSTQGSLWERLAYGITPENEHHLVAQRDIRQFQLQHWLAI
T3 sequence (P31645 whole entry): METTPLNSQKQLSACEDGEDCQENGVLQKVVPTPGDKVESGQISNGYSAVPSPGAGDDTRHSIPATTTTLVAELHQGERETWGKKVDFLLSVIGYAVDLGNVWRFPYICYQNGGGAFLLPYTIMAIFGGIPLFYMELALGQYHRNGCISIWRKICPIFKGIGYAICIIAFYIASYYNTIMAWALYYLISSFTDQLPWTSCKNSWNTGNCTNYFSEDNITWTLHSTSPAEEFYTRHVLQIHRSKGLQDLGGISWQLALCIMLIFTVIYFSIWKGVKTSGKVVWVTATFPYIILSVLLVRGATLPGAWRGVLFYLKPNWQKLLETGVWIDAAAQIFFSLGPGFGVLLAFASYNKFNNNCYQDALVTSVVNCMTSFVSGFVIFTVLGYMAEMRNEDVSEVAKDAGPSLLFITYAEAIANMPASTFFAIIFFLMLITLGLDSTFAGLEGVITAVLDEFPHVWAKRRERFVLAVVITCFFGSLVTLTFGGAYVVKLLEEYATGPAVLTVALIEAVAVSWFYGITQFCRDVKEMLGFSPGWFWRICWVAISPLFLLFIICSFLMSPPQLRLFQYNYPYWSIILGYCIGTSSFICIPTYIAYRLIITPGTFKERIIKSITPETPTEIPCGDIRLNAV
T2 sequence (Q01959 whole entry): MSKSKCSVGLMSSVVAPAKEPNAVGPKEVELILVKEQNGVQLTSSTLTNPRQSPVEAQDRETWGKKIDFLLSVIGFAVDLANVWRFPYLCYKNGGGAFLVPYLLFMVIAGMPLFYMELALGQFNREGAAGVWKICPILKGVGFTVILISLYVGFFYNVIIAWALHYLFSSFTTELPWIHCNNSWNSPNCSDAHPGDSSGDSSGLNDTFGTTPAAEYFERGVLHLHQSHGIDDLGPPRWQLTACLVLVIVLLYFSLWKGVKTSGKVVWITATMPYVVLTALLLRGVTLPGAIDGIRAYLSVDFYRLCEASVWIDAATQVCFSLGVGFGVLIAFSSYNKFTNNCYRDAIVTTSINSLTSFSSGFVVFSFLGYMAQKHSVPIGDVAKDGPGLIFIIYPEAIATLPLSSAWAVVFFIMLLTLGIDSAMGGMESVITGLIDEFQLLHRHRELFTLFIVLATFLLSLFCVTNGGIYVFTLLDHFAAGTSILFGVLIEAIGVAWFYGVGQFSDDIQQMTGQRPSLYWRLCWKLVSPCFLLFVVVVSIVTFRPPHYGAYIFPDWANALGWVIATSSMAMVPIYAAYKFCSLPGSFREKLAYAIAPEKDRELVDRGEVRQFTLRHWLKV

Kd [1] [µM] | Potency Range (difference between most potent and least potent binding) [2] [fold] | Kd [4] [µM] | Kd [3, 5] [µM] | SMILES | Potency (rank-order of potency of binding; S = hSERT, N = hNET, D = hDAT) [2] | Kd [3] [µM] | Binding at hSERT compared to PRC200-SS [4] | Binding at hNET compared to PRC200-SS ([1]; in words) | Potency (rank-order of potency of binding; S = hSERT, N = hNET, D = hDAT) ([2]; listed as MCJ001-NH2-cyc-SS) | Binding at hDAT compared to PRC200-SS [3] | Binding at hSERT compared to PRC200-SS ([4]; listed as MCJ001-NH2-cyc-SS)
– | – | – | – | CNCC[C@H](Oc1cccc2ccccc12)c1cccs1 [Duloxetine, reference compound] | S > N > D | – | – | – | – | – | –
0.099 ± 0.006 | 41 | 0.008 ± 0.001 | 0.33 ± 0.05 | c1ccc([C@H]2OCNC[C@@H]2c2ccc3ccccc3c2)cc1 [MCJ000-OH-Cyc-SS, (5S,6S)-5-(naphthalen-2-yl)-6-phenyl-1,3-oxazinane] | S > D > N | – | – | – | – | – | –
0.234 ± 0.005 | 8.3 | 0.035 ± 0.002 | 0.29 ± 0.02 | CNC[C@@H](c1ccc2ccccc2c1)[C@@H](Cl)c1ccccc1 [MCJ001-Cl-RR, (2R,3R)-3-chloro-N-methyl-2-(naphthalen-2-yl)-3-phenylpropan-1-amine] | S > N > D | – | – | – | – | – | –
0.7 ± 0.05 | 13 | 0.055 ± 0.005 | 0.35 ± 0.02 | CNC[C@@H](c1ccc2ccccc2c1)[C@H](Cl)c1ccccc1 [MCJ001-Cl-SR, (2R,3S)-3-chloro-N-methyl-2-(naphthalen-2-yl)-3-phenylpropan-1-amine] | S > D > N | – | – | – | – | – | –
0.259 ± 0.005 | 2.8 | 0.094 ± 0.01 | 0.24 ± 0.001 | CNC[C@H](c1ccc2ccccc2c1)[C@H](OCCCCO[C@H](c1ccccc1)[C@H](CNC)c1ccc2ccccc2c1)c1ccccc1 [MCJ001-Dimer4-SS, (2S,2′S,3S,3′S)-3,3′-(butane-1,4-diylbis(oxy))bis(N-methyl-2-(naphthalen-2-yl)-3-phenylpropan-1-amine)] | S > D > N | – | – | – | – | – | –
0.078 ± 0.004 | 4.9 | 0.1 ± 0.007 | 0.38 ± 0.03 | CNC[C@H](c1ccc2ccccc2c1)[C@@H](N)c1ccccc1 [MCJ001-NH2-RS, (2S,3R)-N1-methyl-2-(naphthalen-2-yl)-3-phenylpropane-1,3-diamine] | N > S > D | – | – | – | – | – | –
0.46 ± 0.05 | 2.6 | 0.24 ± 0.02 | 0.18 ± 0.02 | CN1CO[C@@H](c2ccccc2)[C@H](c2ccc3ccccc3c2)C1 [MCJ001-OH-Cyc-RR, (5R,6R)-3-methyl-5-(naphthalen-2-yl)-6-phenyl-1,3-oxazinane] | D > S > N | – | – | – | – | – | –
– | – | – | – | CCN(CC)C(=O)C1(c2ccccc2)CC1CN (stereo not shown) [Milnacipran, reference compound] | S > N > D | – | – | – | – | – | –
– | – | – | – | CCOc1ccccc1OC(c1ccccc1)C1CNCCO1 (stereo not shown) [Reboxetine, reference compound] | N > S > D | – | – | – | – | – | –

SMILES | Kd [1] [µM] | Potency Range (difference between most potent and least potent binding) [2] [fold] | Kd [4] [µM] | Kd [3, 5] [µM] | Potency (rank-order of potency of binding; S = hSERT, N = hNET, D = hDAT) [2] | Kd [3] [µM] | Binding at hSERT compared to PRC200-SS [4] | Binding at hNET compared to PRC200-SS ([1]; in words) | Potency (rank-order of potency of binding; S = hSERT, N = hNET, D = hDAT) ([2]; listed as MCJ001-NH2-cyc-SS) | Binding at hDAT compared to PRC200-SS [3] | Binding at hSERT compared to PRC200-SS ([4]; listed as MCJ001-NH2-cyc-SS)
CNC[C@@H](c1ccc2ccccc2c1)[C@@H](N)c1ccccc1 (racemic) [MCJ001-NH2-(±)-RR, (2R,3R)-N1-methyl-2-(naphthalen-2-yl)-3-phenylpropane-1,3-diamine] | 0.0025 ± 0.0001 | 22 | 0.00127 ± 6e-05 | – | S > N > D | 0.028 ± 0.004 | greater binding at hSERT | – | – | – | –
CNC[C@@H](c1ccc2ccccc2c1)[C@@H](F)c1ccccc1 [MCJ001-F-RR, (2R,3R)-3-fluoro-N-methyl-2-(naphthalen-2-yl)-3-phenylpropan-1-amine] | 0.17 ± 0.01 | 11 | 0.016 ± 0.001 | – | S > D > N | 0.15 ± 0.009 | – | – | – | – | –
CN1CN[C@H](c2ccccc2)[C@@H](c2ccc3ccccc3c2)C1 [MCJ001-NH2-Cyc-SS, (4S,5S)-1-methyl-5-(naphthalen-2-yl)-4-phenylhexahydropyrimidine] | 0.013 ± 0.001 | 50 | 0.00026 ± 2e-05 | – | S>D>N | 0.0077 ± 0.0006 | markedly enhanced potency at binding to hSERT | lower potency of binding to hNET | S > D > N | several fold enhanced potency at binding to hDAT; also recorded: several fold more potent binding at hDAT | greater binding at hSERT
C[N+]1(C)CN[C@H](c2ccccc2)[C@@H](c2ccc3ccccc3c2)C1.[Cl-] [MCJ002-NH2-Cyc-SS, (4S,5S)-1,1-dimethyl-5-(naphthalen-2-yl)-4-phenylhexahydropyrimidin-1-ium chloride] | 0.1 ± 0.01 | 53 | 0.0019 ± 0.0002 | – | S > D > N | 0.018 ± 0.002 | greater binding at hSERT | – | – | Enhanced binding to hDAT | –
